Measured values reported in patent US11969423B2, “Compounds” (GLAXOSMITHKLINE INTELLECTUAL PROPERTY DEVELOPMENT LIMITED, priority 2017, dated 2024).
pEC50: −log10 of the molar value.

What follows are molecules tested on M. tuberculosis W4-E1-GFP (Mutant). Details: read-out: EC50_Mutant.
Format: cell-based, Mycobacterium tuberculosis

Compared with `O=C(CCC(F)(F)F)N1CCC(c2cnccn2)CC1` [Example 1, 4,4,4-trifluoro-1-(4-pyrazin-2-yl-1-piperidyl)butan-1-one], `O=C(CCC(F)(F)F)N1CCC(c2cncc(Cl)n2)CC1` [Example 32, 1-(4-(6-chloropyrazin-2-yl)piperidin-1-yl)-4,4,4-trifluorobutan-1-one] is higher in pEC50: 5.00 to 6.00 for the first, 6.60 to 7.30 for the second. The second is the more potent here.

First: O=C(CCC(F)(F)F)N1CCC(F)(c2cccnc2)CC1 [Example 2, 4,4,4-trifluoro-1-[4-fluoro-4-(3-pyridyl)-1-piperidyl]butan-1-one]
Second: O=C(CCC(F)(F)F)N1CCC(F)(c2cncc(Cl)c2)CC1 [Example 29, 1-(4-(5-chloropyridin-3-yl)-4-fluoropiperidin-1-yl)-4,4,4-trifluorobutan-1-one]
The pEC50 of the first is lower: 6.00 to 6.30 for the first, greater than 7.30 for the second.

First: O=C(CCC(F)(F)F)N1CCC(c2cncc(F)c2)CC1 [Example 3, 4,4,4-trifluoro-1-[4-(5-fluoro-3-pyridyl)-1-piperidyl]butan-1-one]
Second: O=C(CCC(F)(F)F)N1CCC(c2cncc(Cl)c2)CC1 [Example 30, 1-(4-(5-chloropyridin-3-yl)piperidin-1-yl)-4,4,4-trifluorobutan-1-one]
The pEC50 of the first is lower: 5.00 to 6.00 for the first, 6.60 to 7.30 for the second. The second is the more potent here.

First: O=C(CCC(F)(F)F)N1CCC(c2ccc(F)nc2)CC1 [Example 4, 4,4,4-trifluoro-1-[4-(6-fluoro-3-pyridyl)-1-piperidyl]butan-1-one]
Second: COc1ccc(C2CCN(C(=O)CCC(F)(F)F)CC2)cn1 [Example 10, 4,4,4-trifluoro-1-[4-(6-methoxy-3-pyridyl)-1-piperidyl]butan-1-one]
The pEC50 of the first is lower: 5.00 to 6.00 for the first, 6.60 to 7.30 for the second.

Compared with `O=C(CCC(F)(F)F)N1CCC(c2ccc(C(F)(F)F)nc2)CC1` [Example 5, 4,4,4-trifluoro-1-[4-[6-(trifluoromethyl)-3-pyridyl]-1-piperidyl]butan-1-one], `O=C(CCC(F)(F)F)N1CCC(c2ccnc(C(F)(F)F)c2)CC1` [Example 18, 4,4,4-trifluoro-1-(4-(2-(trifluoromethyl)pyridin-4-yl)piperidin-1-yl)butan-1-one] is higher in pEC50: 5.00 to 6.00 for the first, greater than 7.30 for the second.

First: O=C(CCC(F)(F)F)N1CCC(c2cc(C(F)(F)F)ccn2)CC1 [Example 6, 4,4,4-trifluoro-1-[4-[4-(trifluoromethyl)-2-pyridyl]-1-piperidyl]butan-1-one]
Second: O=C(CCC(F)(F)F)N1CCC(c2cccc(C(F)(F)F)n2)CC1 [Example 8, 4,4,4-trifluoro-1-[4-[6-(trifluoromethyl)-2-pyridyl]-1-piperidyl]butan-1-one]
The pEC50 of the first is higher: 6.60 to 7.30 for the first, 5.00 to 6.00 for the second. The first is the more potent here.

First: O=C(CCC(F)(F)F)N1CCC(c2cncc(C(F)(F)F)c2)CC1 [Example 7, 4,4,4-trifluoro-1-[4-[5-(trifluoromethyl)-3-pyridyl]-1-piperidyl]butan-1-one]
Second: O=C(CCC(F)(F)F)N1CCC(c2cncc(C(F)(F)F)n2)CC1 [Example 24, 4,4,4-trifluoro-1-(4-(6-(trifluoromethyl)pyrazin-2-yl)piperidin-1-yl)butan-1-one]
The pEC50 of the first is higher: 6.60 to 7.30 for the first, 6.00 to 6.30 for the second.

First: O=C(CCC(F)(F)F)N1CCC(c2cccc(F)n2)CC1 [Example 9, 4,4,4-trifluoro-1-[4-(6-fluoro-2-pyridyl)-1-piperidyl]butan-1-one]
Second: O=C(CCC(F)(F)F)N1CCC(c2cccc(Cl)n2)CC1 [Example 27, 1-(4-(6-chloropyridin-2-yl)piperidin-1-yl)-4,4,4-trifluorobutan-1-one]
The pEC50 of the first is lower: 6.30 to 6.60 for the first, 6.60 to 7.30 for the second. The second is the more potent here.

`O=C(CCC(F)(F)F)N1CCC(c2cccnc2C(F)(F)F)CC1` [Example 11, 4,4,4-trifluoro-1-[4-[2-(trifluoromethyl)-3-pyridyl]-1-piperidyl]butan-1-one] and `O=C(CCC(F)(F)F)N1CCC(c2nccc(C(F)(F)F)n2)CC1` [Example 15] fall in the same range of pEC50: 5.00 to 6.00 for the first, 5.00 to 6.00 for the second.

First: COc1cncc(C2CCN(C(=O)CCC(F)(F)F)CC2)c1 [Example 12, 4,4,4-trifluoro-1-[4-(5-methoxy-3-pyridyl)-1-piperidyl]butan-1-one]
Second: O=C(CCC(F)(F)F)N1CCC(c2cncnc2)CC1 [Example 16]
The pEC50 of the first is higher: 6.00 to 6.30 for the first, 5.00 to 6.00 for the second.

`O=C(CCC(F)(F)F)N1CCC(c2ccc(F)nc2F)CC1` [Example 14, 1-[4-(2,6-difluoro-3-pyridyl)-1-piperidyl]-4,4,4-trifluoro-butan-1-one] and `O=C(CCC(F)(F)F)N1CCC(c2cnc(F)c(F)c2)CC1` [Example 23, 1-(4-(5,6-difluoropyridin-3-yl)piperidin-1-yl)-4,4,4-trifluorobutan-1-one] fall in the same range of pEC50: 6.60 to 7.30 for the first, 6.60 to 7.30 for the second.

First: O=C(CCC(F)(F)F)N1CCC(c2ccc(F)cn2)CC1 [Example 17, 4,4,4-trifluoro-1-[4-(5-fluoro-2-pyridyl)-1-piperidyl]butan-1-one]
Second: O=C(CCC(F)(F)F)N1CCC(c2ccnc(F)c2)CC1 [Example 20, 4,4,4-trifluoro-1-(4-(2-fluoropyridin-4-yl)piperidin-1-yl)butan-1-one]
The pEC50 of the first is lower: 5.00 to 6.00 for the first, 6.60 to 7.30 for the second.

`O=C(CCC(F)(F)F)N1CCC(c2cnc(C(F)(F)F)cn2)CC1` [Example 21, 4,4,4-trifluoro-1-(4-(5-(trifluoromethyl)pyrazin-2-yl)piperidin-1-yl)butan-1-one] and `O=C(CCC(F)(F)F)N1CCC(c2ncccn2)CC1` [Example 28, 4,4,4-trifluoro-1-[4-(pyrimidin-2-yl)piperidin-1-yl]butan-1-one] fall in the same range of pEC50: 5.00 to 6.00 for the first, 5.00 to 6.00 for the second.

`Cc1cc(C2CCN(C(=O)CCC(F)(F)F)CC2)ccn1` [Example 22, 4,4,4-trifluoro-1-(4-(2-methylpyridin-4-yl)piperidin-1-yl)butan-1-one] and `O=C(CCC(F)(F)F)N1CCC(c2ccnc(Cl)c2)CC1` [Example 25, 1-(4-(2-chloropyridin-4-yl)piperidin-1-yl)-4,4,4-trifluorobutan-1-one] fall in the same range of pEC50: 6.60 to 7.30 for the first, 6.60 to 7.30 for the second.

First: O=C(CCC(F)(F)F)N1CCC(c2ccncc2F)CC1 [Example 26, 4,4,4-trifluoro-1-(4-(3-fluoropyridin-4-yl)piperidin-1-yl)butan-1-one]
Second: O=C(CCCC(F)(F)F)N1CCC(c2cncc(Cl)c2)CC1 [Example 31, 1-(4-(5-chloropyridin-3-yl)piperidin-1-yl)-5,5,5-trifluoropentan-1-one]
The pEC50 of the first is lower: 6.00 to 6.30 for the first, 6.30 to 6.60 for the second.

`O=C(CCC(F)(F)F)N1CCC(F)(c2ccccn2)CC1` [Example 33, 4,4,4-trifluoro-1-(4-fluoro-4-(pyridin-2-yl)piperidin-1-yl)butan-1-one] and `O=C(CCC(F)(F)F)N1CCC(F)(c2cc(C(F)(F)F)ccn2)CC1` [Example 39, 4,4,4-trifluoro-1-[4-fluoro-4-[4-(trifluoromethyl)-2-pyridyl]-1-piperidyl]butan-1-one] fall in the same range of pEC50: 6.60 to 7.30 for the first, 6.60 to 7.30 for the second.

`O=C(CCC(F)(F)F)N1CCC(F)(c2cncc(C(F)(F)F)c2)CC1` [Example 34, 4,4,4-trifluoro-1-(4-fluoro-4-(5-(trifluoromethyl)pyridin-3-yl)piperidin-1-yl)butan-1-one] and `O=C(CCC(F)(F)F)N1CCC(F)(c2ccnc(C(F)(F)F)c2)CC1` [Example 35, 4,4,4-trifluoro-1-(4-fluoro-4-(2-(trifluoromethyl)pyridin-4-yl)piperidin-1-yl)butan-1-one] cannot be ordered by pEC50: greater than 7.30 for the first, greater than 7.30 for the second.

First: O=C(CCC(F)(F)F)N1CCC(F)(c2cncc(Cl)n2)CC1 [Example 36, 1-(4-(6-chloropyrazin-2-yl)-4-fluoropiperidin-1-yl)-4,4,4-trifluorobutan-1-one]
Second: O=C(CCC(F)(F)F)N1CCC(F)(c2ccnc(Cl)c2)CC1 [Example 41]
The pEC50 of the first is lower: 6.30 to 6.60 for the first, greater than 7.30 for the second. The second is the more potent here.

Compared with `O=C(CCC(F)(F)F)N1CCC(F)(c2ccnc(F)c2)CC1` [Example 37, 4,4,4-trifluoro-1-(4-fluoro-4-(2-fluoropyridin-4-yl)piperidin-1-yl)butan-1-one], `O=C(CCC(F)(F)F)N1CCC(F)(c2ccc(F)nc2)CC1` [Example 40] is lower in pEC50: greater than 7.30 for the first, 6.60 to 7.30 for the second. The first is the more potent here.

With `O=C(CCC(F)(F)F)N1CCC(c2cncc(Cl)c2)C1` (stereo not drawn) [Example 38, 1-(3-(5-chloropyridin-3-yl)pyrrolidin-1-yl)-4,4,4-trifluorobutan-1-one] the pEC50 was greater than 7.30.
